Results as given in BindingDB's records for patent US20240116926 (Astrazeneca, 2024).

Target: T1, Transcriptional enhancer factor TEF-3 [217-434] (Homo sapiens, UniProt Q15561)
T1 construct: 217-434
Experiment: TEAD4 FRET Assay

T1 sequence (Q15561 217-434): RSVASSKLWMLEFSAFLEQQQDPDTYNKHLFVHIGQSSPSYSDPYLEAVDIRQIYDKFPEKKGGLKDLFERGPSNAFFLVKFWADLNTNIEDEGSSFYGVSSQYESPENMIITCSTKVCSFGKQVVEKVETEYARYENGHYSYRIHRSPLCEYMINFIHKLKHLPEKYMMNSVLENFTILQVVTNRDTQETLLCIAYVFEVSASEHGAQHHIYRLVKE

C=CC(=O)N1C[C@H](C#N)[C@H](Nc2nnc(-c3ccc(C(F)(F)F)cc3)c3ccccc23)C1 (single isomer, unassigned) [US20240116926, Example 29]
IC50: 130 nM
